Consider 17 molecules from patent EP4755888A1 (ILAb Co., Ltd., priority 2023, dated 2025).

This assay concerns the target PD-1/PD-L1 (Homo sapiens, UniProt Q9NZQ7). Description: TR-FRET PD-1/PD-L1 binding inhibition at the molecular level (free proteins). The conditions noted are these: Tag1-PD-L1 and Tag2-PD-1 proteins, twelve concentrations from 200 nM, 2 hours at room temperature, read-out: FRET assay (IC50). Summed up: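 HTRF read-out at 665/620 nm after 2 h at room temperature. Detection used anti-Tag1 Eu cryptate plus anti-Tag2 XL665 antibodies. Tagged PD-L1 and PD-1 proteins were pre-mixed with compound across twelve […] 1:2 dilutions starting at 200 nM.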
Background: In TR-FRET formats the signal depends on donor and acceptor labels being close together.

Some results are limits rather than exact numbers.

PD-1/PD-L1, sequence (Q9NZQ7 19-238 limits assumed): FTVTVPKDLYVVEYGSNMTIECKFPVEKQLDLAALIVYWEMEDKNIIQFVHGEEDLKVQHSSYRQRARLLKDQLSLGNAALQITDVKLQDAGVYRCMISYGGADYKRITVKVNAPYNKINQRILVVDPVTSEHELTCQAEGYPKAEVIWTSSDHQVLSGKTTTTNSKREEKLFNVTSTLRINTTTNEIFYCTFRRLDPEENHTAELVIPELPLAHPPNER

Broadly, the IC50 is the concentration at which inhibition is half-maximal. On to `Cc1c(NC(=O)c2cc3n(n2)CCCC3N2CCC(C(=O)O)CC2)cccc1-c1cccc(Nc2nccc3cc(CN4CC[C@@H](O)C4)cnc23)c1Cl` (stereo partly drawn) [Compound 44, 1-(2-((2'-chloro-3'-((3-(((R)-3-hydroxypyrrolidin-1-yl)methyl)-1,7-naphthyridin-8-yl)amino)-2-methyl-[1,1'-biphenyl]-3-yl)carbamoyl)-4,5,6,7-tetrahydropyrazolo[1,5-a]pyridin-4-yl)piperidine-4-carboxylic acid], for which the IC50 was in the range of 10 to 100 nM.
On to `Cc1c(NC(=O)c2cc3n(n2)CCCC3O)cccc1-c1cccc(NC(=O)c2nc3c(n2C)CCN(CCC24CCC(C(=O)O)(CC2)C4)C3)c1C` (centres unmarked) [Compound 45, 4-(2-(2-((3'-(4-hydroxy-4,5,6,7-tetrahydropyrazolo[1,5-a]pyridine-2-carboxamido)-2,2'-dimethyl-[1,1'-biphenyl]-3-yl)carbamoyl)-1-methyl-6,7-dihydro-1H-imidazo[4,5-c]pyridin-5(4H)-yl)ethyl)bicyclo[2.2.1]heptane-1-carboxylic acid], for which the IC50 is under 10 nM.
As for `CC(=O)NCCNC1CCCn2nc(C(=O)Nc3cccc(-c4cccc(NC(=O)c5nc6c(n5C)CCN(CCC57CCC(C(=O)O)(CC5)C7)C6)c4C)c3C)cc21` (centres unmarked) [Compound 46, 4-(2-(2-((3'-(4-((2-acetamidoethyl)amino)-4,5,6,7-tetrahydropyrazolo[1,5-a]pyridine-2-carboxamido)-2,2'-dimethyl-[1,1'-biphenyl]-3-yl)carbamoyl)-1-methyl-6,7-dihydro-1H-imidazo[4,5-c]pyridin-5(4H)-yl)ethyl)bicyclo[2.2.1]heptane-1-carboxylic acid], the IC50 is under 10 nM.
For the molecule `Cc1c(NC(=O)c2cc3n(n2)CCCC3N2CC[C@@H](O)C2)cccc1-c1cccc(NC(=O)c2nc3c(n2C)CCN(CCC24CCC(C(=O)O)(CC2)C4)C3)c1C` (stereo partly drawn) [Compound 47, 4-(2-(2-((3'-(4-((R)-3-hydroxypyrrolidin-1-yl)-4,5,6,7-tetrahydropyrazolo[1,5-a]pyridine-2-carboxamido)-2,2'-dimethyl-[1,1'-biphenyl]-3-yl)carbamoyl)-1-methyl-6,7-dihydro-1H-imidazo[4,5-c]pyridin-5(4H)-yl)ethyl)bicyclo[2.2.1]heptane-1-carboxylic acid], the IC50 was under 10 nM.
As to `Cc1c(NC(=O)c2cc3n(n2)CCCC3NCCO)cccc1-c1cccc(NC(=O)c2nc3c(n2C)CCN(CCC24CCC(C(=O)O)(CC2)C4)C3)c1C` (centres unmarked) [Compound 48, 4-(2-(2-((3'-(4-((2-hydroxyethyl)amino)-4,5,6,7-tetrahydropyrazolo[1,5-a]pyridine-2-carboxamido)-2,2'-dimethyl-[1,1'-biphenyl]-3-yl)carbamoyl)-1-methyl-6,7-dihydro-1H-imidazo[4,5-c]pyridin-5(4H)-yl)ethyl)bicyclo[2.2.1]heptane-1-carboxylic acid], the IC50 was under 10 nM.
On to `Cc1c(NC(=O)c2cc3n(n2)CCCC3NC[C@@H]2CCC(=O)N2)cccc1-c1cccc(NC(=O)c2nc3c(n2C)CCN(CCC24CCC(C(=O)O)(CC2)C4)C3)c1C` (stereo partly drawn) [Compound 49, 4-(2-(2-((2,2'-dimethyl-3'-(4-((((S)-5-oxopyrrolidin-2-yl)methyl)amino)-4,5,6,7-tetrahydropyrazolo[1,5-a]pyridine-2-carboxamido)-[1,1'-biphenyl]-3-yl)carbamoyl)-1-methyl-6,7-dihydro-1H-imidazo[4,5-c]pyridin-5(4H)-yl)ethyl)bicyclo[2.2.1]heptane-1-carboxylic acid], for which the IC50 was under 10 nM.
To `Cc1c(NC(=O)c2cc3n(n2)CCCC3NCC(=O)O)cccc1-c1cccc(NC(=O)c2nc3c(n2C)CCN(CCC24CCC(C(=O)O)(CC2)C4)C3)c1C` (centres unmarked) [Compound 50, 4-(2-(2-((3'-(4-((carboxymethyl)amino)-4,5,6,7-tetrahydropyrazolo[1,5-a]pyridine-2-carboxamido)-2,2'-dimethyl-[1,1'-biphenyl]-3-yl)carbamoyl)-1-methyl-6,7-dihydro-1H-imidazo[4,5-c]pyridin-5(4H)-yl)ethyl)bicyclo[2.2.1]heptane-1-carboxylic acid] belongs under 10 nM.
Take `Cc1c(NC(=O)c2cc3n(n2)CCCC3NC(C)(C)C(=O)O)cccc1-c1cccc(NC(=O)c2nc3c(n2C)CCN(CCC24CCC(C(=O)O)(CC2)C4)C3)c1C` (centres unmarked) [Compound 51, 4-(2-(2-((3'-(4-((2-carboxypropan-2-yl)amino)-4,5,6,7-tetrahydropyrazolo[1,5-a]pyridine-2-carboxamido)-2,2'-dimethyl-[1,1'-biphenyl]-3-yl)carbamoyl)-1-methyl-6,7-dihydro-1H-imidazo[4,5-c]pyridin-5(4H)-yl)ethyl)bicyclo[2.2.1]heptane-1-carboxylic acid]: the IC50 was under 10 nM.
As to `CC(=O)NCCNC1CCCn2nc(C(=O)Nc3cccc(-c4cccc(NC(=O)c5nc6c(n5C)CCN(CCC57CCC(C(=O)O)(CC5)C7)C6)c4Cl)c3Cl)cc21` (centres unmarked) [Compound 52, 4-(2-(2-((3'-(4-((2-acetamidoethyl)amino)-4,5,6,7-tetrahydropyrazolo[1,5-a]pyridine-2-carboxamido)-2,2'-dichloro-[1,1'-biphenyl]-3-yl)carbamoyl)-1-methyl-6,7-dihydro-1H-imidazo[4,5-c]pyridin-5(4H)-yl)ethyl)bicyclo[2.2.1]heptane-1-carboxylic acid], the IC50 is under 10 nM.
In the case of `Cn1c(C(=O)Nc2cccc(-c3cccc(NC(=O)c4cc5n(n4)CCCC5NCCO)c3Cl)c2Cl)nc2c1CCN(CCC13CCC(C(=O)O)(CC1)C3)C2` (centres unmarked) [Compound 53, 4-(2-(2-((2,2'-dichloro-3'-(4-((2-hydroxyethyl)amino)-4,5,6,7-tetrahydropyrazolo[1,5-a]pyridine-2-carboxamido)-[1,1'-biphenyl]-3-yl)carbamoyl)-1-methyl-6,7-dihydro-1H-imidazo[4,5-c]pyridin-5(4H)-yl)ethyl)bicyclo[2.2.1]heptane-1-carboxylic acid], the IC50 was under 10 nM.
With `Cn1c(C(=O)Nc2cccc(-c3cccc(NC(=O)c4cc5n(n4)CCCC5NC[C@@H]4CCC(=O)N4)c3Cl)c2Cl)nc2c1CCN(CCC13CCC(C(=O)O)(CC1)C3)C2` (stereo partly drawn) [Compound 54, 4-(2-(2-((2,2'-dichloro-3'-(4-((((S)-5-oxopyrrolidin-2-yl)methyl)amino)-4,5,6,7-tetrahydropyrazolo[1,5-a]pyridine-2-carboxamido)-[1,1'-biphenyl]-3-yl)carbamoyl)-1-methyl-6,7-dihydro-1H-imidazo[4,5-c]pyridin-5(4H)-yl)ethyl)bicyclo[2.2.1]heptane-1-carboxylic acid], the IC50 is 10 to 100 nM.
As for `Cn1c(C(=O)Nc2cccc(-c3cccc(NC(=O)c4cc5n(n4)CCCC5NCC(=O)O)c3Cl)c2Cl)nc2c1CCN(CCC13CCC(C(=O)O)(CC1)C3)C2` (centres unmarked) [Compound 56, 4-(2-(2-((3'-(4-((carboxymethyl)amino)-4,5,6,7-tetrahydropyrazolo[1,5-a]pyridine-2-carboxamido)-2,2'-dichloro-[1,1'-biphenyl]-3-yl)carbamoyl)-1-methyl-6,7-dihydro-1H-imidazo[4,5-c]pyridin-5(4H)-yl)ethyl)bicyclo[2.2.1]heptane-1-carboxylic acid], the concentration for half-maximal inhibition (IC50) was under 10 nM.
In the case of `Cn1c(C(=O)Nc2cccc(-c3cccc(NC(=O)c4cc5n(n4)CCCC5N4CC[C@@H](C(=O)O)C4)c3Cl)c2Cl)nc2c1CCN(CCC13CCC(C(=O)O)(CC1)C3)C2` (stereo partly drawn) [Compound 57, (3R)-1-(2-((3'-(5-(2-(4-carboxybicyclo[2.2.1]heptan-1-yl)ethyl)-1-methyl-4,5,6,7-tetrahydro-1H-imidazo[4,5-c]pyridine-2-carboxamido)-2,2'-dichloro-[1,1'-biphenyl]-3-yl)carbamoyl)-4,5,6,7-tetrahydropyrazolo[1,5-a]pyridin-4-yl)pyrrolidine-3-carboxylic acid], the IC50 was under 10 nM.
In the case of `Cn1c(C(=O)Nc2cccc(-c3cccc(NC(=O)c4cc5n(n4)CCCC5N4CCC(O)CC4)c3Cl)c2Cl)nc2c1CCN(CCC13CCC(C(=O)O)(CC1)C3)C2` (centres unmarked) [Compound 58, 4-(2-(2-((2,2'-dichloro-3'-(4-(4-hydroxypiperidin-1-yl)-4,5,6,7-tetrahydropyrazolo[1,5-a]pyridine-2-carboxamido)-[1,1'-biphenyl]-3-yl)carbamoyl)-1-methyl-6,7-dihydro-1H-imidazo[4,5-c]pyridin-5(4H)-yl)ethyl)bicyclo[2.2.1]heptane-1-carboxylic acid], the IC50 fell in the range of 10 to 100 nM.
Consider `Cn1c(C(=O)Nc2cccc(-c3cccc(NC(=O)c4cc5n(n4)CCCC5N4CCC(C(=O)O)CC4)c3Cl)c2Cl)nc2c1CCN(CCC13CCC(C(=O)O)(CC1)C3)C2` (centres unmarked) [Compound 59, 1-(2-((3'-(5-(2-(4-carboxybicyclo[2.2.1]heptan-1-yl)ethyl)-1-methyl-4,5,6,7-tetrahydro-1H-imidazo[4,5-c]pyridine-2-carboxamido)-2,2'-dichloro-[1,1'-biphenyl]-3-yl)carbamoyl)-4,5,6,7-tetrahydropyrazolo[1,5-a]pyridin-4-yl)piperidine-4-carboxylic acid], for which the IC50 is under 10 nM.
The same measure for `Cn1c(C(=O)Nc2cccc(-c3cccc(NC(=O)c4cc5n(n4)CCCC5NC(C)(C)C(=O)O)c3Cl)c2Cl)nc2c1CCN(CCC13CCC(C(=O)O)(CC1)C3)C2` (centres unmarked) [Compound 60, 4-(2-(2-((3'-(4-((2-carboxypropan-2-yl)amino)-4,5,6,7-tetrahydropyrazolo[1,5-a]pyridine-2-carboxamido)-2,2'-dichloro-[1,1'-biphenyl]-3-yl)carbamoyl)-1-methyl-6,7-dihydro-1H-imidazo[4,5-c]pyridin-5(4H)-yl)ethyl)bicyclo[2.2.1]heptane-1-carboxylic acid]: under 10 nM.
In the case of `Cc1c(NC(=O)c2cc3n(n2)CCCC3O)cccc1-c1cccc(-c2nc3cc(CN4CC[C@@H](C(=O)O)C4)cc(C#N)c3o2)c1C` (stereo partly drawn) [Compound 61, (3R)-1-((7-cyano-2-(3'-(4-hydroxy-4,5,6,7-tetrahydropyrazolo[1,5-a]pyridine-2-carboxamido)-2,2'-dimethyl-[1,1'-biphenyl]-3-yl)benzo[d]oxazol-5-yl)methyl)pyrrolidine-3-carboxylic acid], the 50% inhibitory concentration (IC50) was under 10 nM.
